In test [1] the target is T1, Neuropeptide Y receptor type 1 (Homo sapiens, UniProt P25929).
T1 sequence (P25929 whole entry): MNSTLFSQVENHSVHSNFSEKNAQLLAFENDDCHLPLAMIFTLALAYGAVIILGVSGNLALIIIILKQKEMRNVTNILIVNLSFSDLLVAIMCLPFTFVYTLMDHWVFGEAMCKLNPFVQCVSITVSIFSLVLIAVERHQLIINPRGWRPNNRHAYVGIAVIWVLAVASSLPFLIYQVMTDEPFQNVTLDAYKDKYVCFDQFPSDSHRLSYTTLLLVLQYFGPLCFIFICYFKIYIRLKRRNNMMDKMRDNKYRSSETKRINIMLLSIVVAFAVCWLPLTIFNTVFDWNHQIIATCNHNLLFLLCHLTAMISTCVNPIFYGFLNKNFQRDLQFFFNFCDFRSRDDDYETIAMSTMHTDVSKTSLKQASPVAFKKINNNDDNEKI
The test can be described thus: Displacement of [125I]PYY from human NPY1. (Displacement assays read how much labelled ligand stays bound in the presence of the test substance.)

The target in test [2] is T2, Neuropeptide Y receptor type 2 (Homo sapiens, UniProt P49146).
T2 sequence (P49146 whole entry): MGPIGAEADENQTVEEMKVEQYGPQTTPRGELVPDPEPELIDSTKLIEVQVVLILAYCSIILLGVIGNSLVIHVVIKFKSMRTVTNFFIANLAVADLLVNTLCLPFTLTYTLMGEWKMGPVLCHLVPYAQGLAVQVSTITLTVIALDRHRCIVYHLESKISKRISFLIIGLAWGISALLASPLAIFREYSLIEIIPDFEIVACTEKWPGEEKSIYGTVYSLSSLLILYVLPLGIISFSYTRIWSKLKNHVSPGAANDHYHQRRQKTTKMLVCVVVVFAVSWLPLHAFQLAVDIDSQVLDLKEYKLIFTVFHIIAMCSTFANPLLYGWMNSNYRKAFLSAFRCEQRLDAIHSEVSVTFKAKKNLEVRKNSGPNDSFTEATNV
As to the kind of experiment: Displacement of [125I]PYY from human NPY2.

For test [3], the target named is T2, Neuropeptide Y receptor type 2. The test can be described thus: Agonist activity at human NPY2 by [35S]GTPgammaS […] assay. The class given is functional.
The target in test [4] is T3, Neuropeptide Y receptor type 5 (Homo sapiens, UniProt Q15761).
T3 sequence (Q15761 whole entry): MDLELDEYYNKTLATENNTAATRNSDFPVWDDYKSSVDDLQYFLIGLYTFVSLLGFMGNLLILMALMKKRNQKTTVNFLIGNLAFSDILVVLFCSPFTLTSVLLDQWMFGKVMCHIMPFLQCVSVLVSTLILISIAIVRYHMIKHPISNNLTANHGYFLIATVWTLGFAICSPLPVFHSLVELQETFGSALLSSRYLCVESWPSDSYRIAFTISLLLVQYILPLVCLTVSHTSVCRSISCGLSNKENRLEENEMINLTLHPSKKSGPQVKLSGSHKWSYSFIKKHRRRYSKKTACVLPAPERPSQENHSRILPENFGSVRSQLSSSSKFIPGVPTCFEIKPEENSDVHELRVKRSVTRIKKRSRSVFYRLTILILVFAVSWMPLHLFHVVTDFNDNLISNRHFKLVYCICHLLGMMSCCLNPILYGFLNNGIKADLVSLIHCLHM
As to the kind of experiment: Displacement of [125I]PYY from human NPY5.

SMILES strings stand for the structures. Residues, ends and D or L forms follow the SMILES beside them. *: point of attachment. X1 = CSc1ncccc1C(=O)* Bounds are passed on as bounds.

The Ki is the dissociation constant of the complex between target and ligand, obtained from inhibition or displacement. High values mean lower affinity, low ones higher affinity. As a reminder, the EC50 is the midpoint of the concentration-response curve. A higher EC50 goes with weaker potency.

Take `CSc1ncccc1C(=O)N[C@@H](CCCNC(=N)N)C(=O)N[C@@H](Cc1cnc[nH]1)C(=O)N[C@@H](Cc1ccc(O)cc1)C(=O)N[C@@H](CC(C)C)C(=O)N[C@@H](CC(N)=O)C(=O)N[C@@H](CC(C)C)C(=O)N[C@@H](CC(C)C)C(=O)N[C@H](C(=O)N[C@@H](CCCNC(=N)N)C(=O)N[C@@H](CCC(N)=O)C(=O)N[C@@H](CCCNC(=N)N)C(=O)N[C@@H](Cc1ccc(O)cc1)C(N)=O)[C@@H](C)O` (X1-RHYLNLLTRQRY-NH2): the Ki in test [1] was over 1000 nM; in test [2], 11 nM (antagonist); in test [4], over 1000 nM. Also, in test [3], the EC50 is 4 nM (agonist).

The values are drawn from ChEMBL document CHEMBL1147158, “Novel selective neuropeptide Y2 receptor PEGylated peptide agonists reduce food intake and body weight in mice” (J Med Chem, 2007).
